Measurements published in PMC4790305, “An FDA-Drug Library Screen for Compounds with Bioactivities against Meticillin-Resistant Staphylococcus aureus (MRSA)” (Antibiotics, 2015).
≈ marks a conversion by molar mass, not a printed value. Where two headings read alike, the source gives them in different places.

How the values were obtained:
[1] = system: MRSA USA 300 (ATCC-BAA-1680); experiment: Minimum inhibitory concentration (MIC) assay, MRSA USA 300; assay type: cell-based, meticillin-resistant Staphylococcus aureus; conditions: Staphylococcus aureus, read-out: MRSA MICs USA 300
Description: (§1) The 1163 FDA-approved drugs were purchased as a library set from Selleckchem (catalog #L1300). For MIC assays, Ivacaftor, Mupirocin and Tigecycline were purchased from Santa Cruz Biotechnology (Dallas, TX, USA). All other test compounds were purchased from Sigma-Aldrich (St. Louis, MO, USA) and were used without further purification. MRSA strains USA 100 (ATCCBAA-1681), USA 300 (ATCC-BAA-1680), USA400 (ATCC-BAA-1707) and VISA (ATCC-700699) were purchased from ATCC (Manassas, VA, USA).
(§2) The MICs of antibiotics and peptides were determined using the microdilution method from the Clinical and Laboratory Standards Institute (CLSI) guidelines. Briefly, bacteria were grown fresh from frozen stock in MH2 agar at 37 °C. After an overnight incubation, five MRSA colonies were selected to grow in cation-adjusted MH2 broth (BD Biosciences catalog #212322) in a shaker incubator at 37 °C, 220 RPM. Cells were grown to an optical density (OD600) of 0.15–0.16 using a Microplate Spectrophotometer (Molecular Devices Spectra Max Plus), which corresponds to 1–2 × 10^8 CFU/mL. Test compounds were constituted into 4 mM DMSO stock solutions and then subjected to two-fold serial dilution in a 96-well plate with concentrations ranging from 100 to 0.2 μM in duplicates. The amount of 50 μL of microbial culture containing ~1–2 × 10^6 CFU/mL of microbes in the respective broths was introduced into each well containing 50 μL of compound. After an overnight incubation at 35 °C, OD600 measurements were conducted using the Microplate Spectrophotometer. The MIC was defined as the lowest drug concentration (μM) required to inhibit microbial growth.

[2] = system: panel of clinical MRSA strains (USA 100, USA 300, USA 400 and VISA); experiment: MIC assay against panel of clinical MRSA strains; assay type: cell-based, meticillin-resistant Staphylococcus aureus; conditions: Staphylococcus aureus, across USA 100, USA 300, USA 400 and VISA
Description: as §1, §2

VISA (ATCC-700699) = experiment: Minimum inhibitory concentration (MIC) assay, VISA; assay type: cell-based, meticillin-resistant Staphylococcus aureus; conditions: Staphylococcus aureus, ATCC 700699 / MRSA / VISA, read-out: MRSA MICs VISA
Description: as §1, §2

[3] = system: MRSA USA 100 (ATCCBAA-1681); experiment: Minimum inhibitory concentration (MIC) assay, MRSA USA 100; assay type: cell-based, meticillin-resistant Staphylococcus aureus; conditions: Staphylococcus aureus, read-out: MRSA MICs USA 100
Description: as §1, §2

MRSA USA100 = experiment: Single-point 10 μM bacteria growth inhibition assay; assay type: cell-based, meticillin-resistant Staphylococcus aureus; conditions: MRSA USA 100
Description: as §1
MRSA USA100 was grown from frozen glycerol stock on Mueller Hinton 2 (MH2) agar overnight at 37 °C. Five colonies were selected from the agar plate and grown in cation-adjusted MH2 broth (BD Biosciences catalog #212322, Franklin Lakes, NJ, USA) in a shaker incubator at 37 °C, 220 RPM. Cells were grown to 1–2 × 10^8 CFU/mL and diluted 1:100 in MH2 broth. An amount of 50 μL of test compounds pre-dissolved in MH2 broth at 20 μM concentrations were added in duplicates into each well in a 96-well plate. A total of 50 μL of bacteria inoculums containing ~1 × 10^6 CFU/mL of bacteria in MH2 broth was introduced into each well containing the test compounds. The final DMSO concentration was kept at 2.5% in each well. After an overnight incubation at 35 °C, optical density (OD600) of each well was determined using the Microplate Spectrophotometer (Molecular Devices Spectra Max Plus, Sunnyvale, CA, USA).

mouse = system: mouse; set-up: method as in PMID 12724731; conditions: cited from earlier work
[4] = system: Adult normal human epidermal keratinocytes (NHEK); experiment: Human epidermal keratinocyte viability (GI50) assay; assay type: cell-based; conditions: 120 h, read-out: Keratinocyte GI50
Description: Adult normal human epidermal keratinocytes (NHEK) were purchased from Lonza (catalog #00192627, Basel, Switzerland) and cultured in keratinocyte growth medium (Lonza KGM-Gold Bullet Kit) containing growth supplements (Lonza Reagent Pack) at 5% CO2 (37 °C). The cell viability assay was performed using the CellTiter-Glo Luminescent Cell Viability Assay protocol from Promega (www.promega.com, Fitchburg, WI, USA). Briefly, NHEK were treated with test compounds in keratinocyte growth medium in 96-well plates (Thermo Scientific Nunclon Delta, Waltham, MA, USA). Treated cells were incubated for 5 days at 5% CO2 (37 °C). Promega CellTiter-Glo Reagent was added and plates were shaken on an orbital shaker for […]. Next, well contents (100 μL) from each well were transferred into opaque 96-well plates (PerkinElmer OptiPlate-96) and luminescence measured by a microplate reader (Tecan Safire2).

[5] = system: MRSA USA400 (ATCC-BAA-1707); experiment: Minimum inhibitory concentration (MIC) assay, MRSA USA 400; assay type: cell-based, meticillin-resistant Staphylococcus aureus; conditions: Staphylococcus aureus, read-out: MRSA MICs USA 400
Description: as §1, §2

[6] = intravenously administered; cited from earlier work
rats = conditions: rat, cited from earlier work
MRSA USA300 [7] = experiment: Bactericidal/static determination assay; assay type: cell-based, meticillin-resistant Staphylococcus aureus; conditions: MRSA USA300, 4× MIC; bactericidal when ≥99.9% cell death
Description: After the MICs of test compounds were determined using the microdilution method described in Section 2.2, the entire well contents (100 μL) corresponding to 4× the MIC of the antibiotic or peptide were transferred and spread on fresh sterile MH2 agar plates. The plates were incubated overnight at 37 °C and the number of colony forming units (CFU) was determined the next day. A compound was classified as bactericidal when ≥99.9% cell death was observed.

MRSA USA300 [8] = experiment: Time-kill assay; assay type: cell-based, meticillin-resistant Staphylococcus aureus; conditions: MRSA USA300, 4× MIC, within 6 h
Description: Bacteria cells were grown to 1 × 10^8 CFU/mL in MH2 broth and then diluted […] into 5 mL aliquots to a density of 1 × 10^6 CFU/mL in a flask. Test compounds pre-dissolved in DMSO corresponding to 4× their MICs were then added into each flask with a final DMSO concentration of 2.5% v/v. The negative control was 2.5% DMSO. The flasks were incubated in a shaking incubator (220 RPM) at 37 °C. Samples (100 μL) were taken hourly from the flasks between t = 0 and t = 6 h. The samples were serially diluted in MH2 broth before plating on sterile MH2 agar and incubated overnight at 37 °C. A bacteria count for each plate was conducted the next day. A graph of Log CFU/mL was plotted against time to obtain the time-kill graph.

[9] = 5 days incubation, CellTiter-Glo
[10] = printed conversion of μM values

| SMILES | MIC ([1]; microdilution, overnight 35 °C) [µM] | MIC [2] [µM] | MIC (VISA (ATCC-700699); microdilution, overnight 35 °C) [µM] | MIC ([3]; microdilution, overnight 35 °C) [µM] | Antibacterial activity in single-point screen (MRSA USA100) | intravenous LD50 (mouse) [mg/kg] | GI50 [4, 9] [µM] | MIC ([5]; microdilution, overnight 35 °C) [µM] | half-life [6] [min] | MIC [2, 10] [ng/mL] | intraperitoneal LD50 (rats; intraperitoneal) [mg/kg] | Bactericidal/static classification (MRSA USA300 [7]) | log reduction in bacteria count (MRSA USA300 [8]) | intravenous LD50 (rats; intravenous) [mg/kg] | MIC [1] [µM] | MIC (VISA (ATCC-700699)) [µM] | MIC [3] [µM] | GI50 [4] [µM] | MIC [5] [µM] |
| --- | --- | --- | --- | --- | --- | --- | --- | --- | --- | --- | --- | --- | --- | --- | --- | --- | --- | --- | --- |
| O=c1[nH]cc(F)c(=O)[nH]1 [5-fluorouracil, 5-Fluorouracil] | 3.13 (≈ 0.407 µg/mL) | 3.13 to 6.25 | 6.25 (≈ 0.813 µg/mL) | 6.25 (≈ 0.813 µg/mL) | either bacteriostatic or bactericidal | 81 | 33.3 ± 2.6 | 3.13 (≈ 0.407 µg/mL) | 10 to 16 | – | – | – | – | – | – | – | – | – | – |
| CCC[C@@H]1C[C@@H](C(=O)N[C@@H]([C@H]2O[C@H](SC)[C@H](O)[C@@H](O)[C@H]2O)[C@H](C)Cl)N(C)C1 [Clindamycin] | 0.2 (≈ 0.085 µg/mL) | – | > 100 | > 100 | – | – | > 50 | 0.2 (≈ 0.085 µg/mL) | – | – | – | – | – | – | – | – | – | – | – |
| C[C@H]1c2cccc(O)c2C(=O)C2=C(O)[C@]3(O)C(=O)C(C(N)=O)=C(O)[C@@H](N(C)C)[C@@H]3[C@@H](O)[C@@H]21 [Doxycycline] | 0.78 (≈ 0.347 µg/mL) | – | 12.5 (≈ 5.56 µg/mL) | 0.39 (≈ 0.173 µg/mL) | – | – | 36.9 ± 3.7 | 1.56 (≈ 0.693 µg/mL) | – | – | – | – | – | – | – | – | – | – | – |
| O=c1[nH]c(=O)n([C@H]2C[C@H](O)[C@@H](CO)O2)cc1F [Floxuridine] | 0.00313 (≈ 0.000771 µg/mL) | 0.00313 to 0.025 | 0.00625 (≈ 0.00154 µg/mL) | 0.025 (≈ 0.00615 µg/mL) | either bacteriostatic or bactericidal | – | > 100 | 0.0125 (≈ 0.00308 µg/mL) | – | 0.77 to 6.16 | 1600 | bactericidal | ~2 log | – | – | – | – | – | – |
| Nc1ccn([C@@H]2O[C@H](CO)[C@@H](O)C2(F)F)c(=O)n1 [Gemcitabine] | 0.05 (≈ 0.0132 µg/mL) | 0.05 to 0.1 | 0.05 (≈ 0.0132 µg/mL) | 0.1 (≈ 0.0263 µg/mL) | either bacteriostatic or bactericidal | – | 1.9 ± 0.2 | 0.1 (≈ 0.0263 µg/mL) | – | 10 to 20 | – | – | – | 236 | – | – | – | – | – |
| CC(C)(C)c1cc(C(C)(C)C)c(NC(=O)c2c[nH]c3ccccc3c2=O)cc1O [Ivacaftor] | 6.25 (≈ 2.45 µg/mL) | 6.25 | 6.25 (≈ 2.45 µg/mL) | 6.25 (≈ 2.45 µg/mL) | either bacteriostatic or bactericidal | – | 5.9 ± 0.5 | 6.25 (≈ 2.45 µg/mL) | – | – | – | – | – | – | – | – | – | – | – |
| CC(=O)NC[C@H]1CN(c2ccc(N3CCOCC3)c(F)c2)C(=O)O1 [Linezolid] | 6.25 (≈ 2.11 µg/mL) | – | 3.13 (≈ 1.06 µg/mL) | 6.25 (≈ 2.11 µg/mL) | – | – | > 100 | 6.25 (≈ 2.11 µg/mL) | – | – | – | bacteriostatic | less than a log reduction | – | – | – | – | – | – |
| C/C(=C\C(=O)OCCCCCCCCC(=O)O)C[C@@H]1OC[C@H](C[C@@H]2O[C@H]2[C@@H](C)[C@H](C)O)[C@@H](O)[C@H]1O [Mupirocin] | 0.39 (≈ 0.195 µg/mL) | – | > 100 | 0.78 (≈ 0.39 µg/mL) | – | – | > 50 | 0.39 (≈ 0.195 µg/mL) | – | – | – | – | – | – | – | – | – | – | – |
| OC1(c2ccc(Cl)c(C(F)(F)F)c2)CCN(CCCC(c2ccc(F)cc2)c2ccc(F)cc2)CC1 [Penfluridol] | 3.13 (≈ 1.64 µg/mL) | 3.13 | 3.13 (≈ 1.64 µg/mL) | 3.13 (≈ 1.64 µg/mL) | either bacteriostatic or bactericidal | – | 2.1 ± 0.6 | 3.13 (≈ 1.64 µg/mL) | – | – | – | – | – | – | – | – | – | – | – |
| CN(C)c1cc(NC(=O)CNC(C)(C)C)c(O)c2c1C[C@H]1C[C@H]3[C@H](N(C)C)C(O)=C(C(N)=O)C(=O)[C@@]3(O)C(O)=C1C2=O [Tigecycline] | 0.78 (≈ 0.457 µg/mL) | – | 1.56 (≈ 0.914 µg/mL) | 0.78 (≈ 0.457 µg/mL) | – | – | 20.6 ± 4.2 | 0.78 (≈ 0.457 µg/mL) | – | – | – | – | – | – | – | – | – | – | – |
| CN[C@H](CC(C)C)C(=O)N[C@H]1C(=O)N[C@@H](CC(N)=O)C(=O)N[C@H]2C(=O)N[C@H]3C(=O)N[C@H](C(=O)N[C@H](C(=O)O)c4cc(O)cc(O)c4-c4cc3ccc4O)[C@H](O)c3ccc(c(Cl)c3)Oc3cc2cc(c3O[C@@H]2O[C@H](CO)[C@@H](O)[C@H](O)[C@H]2O[C@H]2C[C@](C)(N)[C@H](O)[C@H](C)O2)Oc2ccc(cc2Cl)[C@H]1O [Vancomycin] | – | – | – | – | – | – | – | – | – | – | – | – | – | – | 0.78 (≈ 1.13 µg/mL) | 6.25 (≈ 9.06 µg/mL) | 0.78 (≈ 1.13 µg/mL) | > 100 | 0.78 (≈ 1.13 µg/mL) |
